The source of these data is article PMC10597491 (PLOS ONE, 2023).

What all share (type): cell-based
For one test, the system named is human naive CD8+ T-cells. Briefly: pSTAT5 ELISA in isolated naive CD8+ T-cells. The conditions noted are these: for EC50: rested naive CD8+ T-cells, 15 min exposure, pSTAT5 ELISA. On the procedure: (§1) We first assessed induction kinetics over a time course of compound exposure. Saturating concentrations of each of the compounds, previously determined to elicit maximum response of pSTAT5 signaling, were applied to the cells and pSTAT5 levels monitored for up to 2 hours. The resulting time-response profiles served to compare the kinetics of signal induction for the different compounds, and to determine Tmax for correct time of exposure in subsequent dose response determinations for each compound. In these studies, IL-7-induced pSTAT5 accumulation rose rapidly to a maximum by 15 to 30 minutes, then declined slowly for the remainder of the time course.
(§2) Naive CD4+ and CD8+ T-cells, were separately isolated by negative selection from PBMCs, and rested overnight prior to compound exposure.
(§3) For preparation of lymphocyte subsets, naïve CD4+ T-cells were isolated via two-stage negative selection with EasySep™ Human Naïve CD4+ T-Cell Isolation Kit II (Stemcell Technologies Cat# 17555); and CD8+ T-cells were isolated by negative selection from PBMCs with Stem Cell Technology Easy Sep CD8+ kit, or obtained freshly prepared from Stanford Blood Center. Rested naïve CD4+ T-cells or CD8+ T-cells were prepared by overnight incubation at 37°C, 5% CO2 in CTS™ OpTmizer™ T-Cell Expansion SFM (ThermoFisher Scientific Cat# A1048501).
(§4) Cells were deprived of growth factors by overnight incubation at 5×10^5 cells/mL in starvation medium (RPMI 1640 + 4.5 g/L glucose + 0.2% FBS + 2 mM L-glutamine + 1 mM NaPyr + 10 mM HEPES + 0.5x penicillin-streptomycin with no cytokine supplement) in T75 flasks. For assays, cells were plated in 96-well V-bottom plates at 2×10^5 cells/well. […] Following incubation, cell extracts were prepared by adding a mixture of 10x Cell Lysis Buffer (Cell Signaling Technology Cat# 9803) and 100x HALT Phosphatase and Protease Inhibitor Cocktail (Thermo Fisher Cat# 78442) directly to the wells. The plates were agitated at 25°C for 5 min to prepare cell extracts for immediate use or to be stored at -80°C until assay. […]
In general terms: In an ELISA, binding on a coated surface is turned into a signal by an enzyme label.

In another test the test system is human naive CD4+ T-cells. The test is described as follows: pSTAT5 ELISA in isolated naive CD4+ T-cells. The conditions noted are these: for EC50: rested naive CD4+ T-cells, 15 min exposure, pSTAT5 ELISA. As for the experimental part: as §1, §2, §3, §4
The test system of test [1] is rested human CD8+ T-cells. The test is described as follows: IL-7Rα (CD127) internalization assay. On the procedure:
In previous studies, the decline of IL-7Rα on the surface of IL-7-treated CD8+ cells was reported to proceed with approximately linear kinetics, reaching ~80% disappearance of receptor over 6 hours at 37°C [49]. […] Surface IL-7R was pre-loaded with saturating concentrations of the agonists on ice and shifted to 37°C to allow internalization, then shifted back to ice to stop internalization. […] A parallel assay with all incubations held on ice for the duration of the time course was also run.
Fig 8 Test compounds induce decrease in cell surface IL-7Rα. […] Following timed incubations, the samples were stained, fixed, and analyzed by flow cytometry; and data was collected as median fluorescence intensity (MFI), as detailed in Methods. […] The primary flow data (MFI) is shown in S3 Fig.
CD8+ cells isolated by negative selection from PBMCs with Stem Cell Technology Easy Sep CD8+ kit, or obtained freshly prepared from Stanford Blood Center, were rested overnight in RPMI 1640 containing Pen/Strep, L-Glutamine and 20% FBS; then resuspended to 7.0 x10^6 cells/mL. […] To determine levels of cell surface IL-7Rα, analysis was performed by flow cytometry to determine median fluorescence intensity (MFI) of cells at each condition. […]

Bridge positions count the residues as written; N and C are the ends. Ends that are not written are not given here.

The EC50 is the concentration at which the effect is half-maximal. A low value points to a more potent agent. For “Ac-GWGIPWCTLDPGSLQCAWLGKHGGGGSGGVVCQDWEGVELCWQGG (disulfide 7-16, 32-41) [MDK1472]”, the “agonist efficacy, CD8+” value in the test on human naive CD8+ T-cells (dose response at 15 min) is “full agonists”. In addition, the figures for the EC50 in the test with human naive CD8+ T-cells and in the test on human naive CD4+ T-cells were 0.35 nM and 1.3 nM, respectively. Moreover, the “agonist efficacy, CD4+” value in the test on human naive CD4+ T-cells (dose response at 15 min) is recorded as “full agonists”. Besides, the “rate of surface decline of IL-7Rα” value in test [1] (1 μM, 37°C) is given as “tracked very closely with that induced by IL-7”.

For IL-7: human IL-7 cytokine (Peprotech), the figures for the EC50 in the test with human naive CD8+ T-cells and in the test with human naive CD4+ T-cells were 0.0028 nM and 0.0025 nM, respectively. In addition, the “loss of IL-7Rα surface density” value in test [1] (6 hours at 37°C, 10 nM IL-7) is 60%.
